Assay results as given in ChEMBL document CHEMBL1201862, “PubChem BioAssay data set” (2004).
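48-hour exposure; five concentrations; linearly interpolated endpoints. GI50 marks 50% less growth.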 Active and inactive are the calls of the source. Cut-off read from the data, not from the text of the source: active = GI50 up to about 1.1 µM and inactive = higher.

What was measured:
Assay in all cases: inhibition of tumour cell growth, NCI panel, 48 h
KM12 = tested on: KM12
SW-620 = tested on: SW-620
A549 = tested on: A549
SK-MEL-28 = tested on: SK-MEL-28
SK-MEL-5 = tested on: SK-MEL-5
LOX IMVI = tested on: LOX IMVI
TK-10 = tested on: TK-10
UACC-62 = tested on: UACC-62
SF-268 = tested on: SF-268
NCI-H23 = tested on: NCI-H23
Malme-3M = tested on: Malme-3M
MDA-N = tested on: MDA-N
COLO 205 = tested on: COLO 205
CCRF-CEM = tested on: CCRF-CEM
HCT-116 = tested on: HCT-116
OVCAR-3 = tested on: OVCAR-3
SNB-19 = tested on: SNB-19
MCF7 = tested on: MCF7
U-251 = tested on: U-251
NCI-H226 = tested on: NCI-H226

## COc1cc2ccnc3c2c(c1O)N(C)C=C3
KM12
  GI50: 19.4 µM (inactive)
SW-620
  GI50: 12 µM (inactive)
A549
  GI50: 20.2 µM (inactive)
SK-MEL-28
  GI50: 24.9 µM (inactive)
SK-MEL-5
  GI50: 12.8 µM (inactive)
LOX IMVI
  GI50: 8.39 µM (inactive)
TK-10
  GI50: 16.2 µM (inactive)
UACC-62
  GI50: 9.93 µM (inactive)
SF-268
  GI50: 17.7 µM (inactive)
NCI-H23
  GI50: 17.1 µM (inactive)
Malme-3M
  GI50: 6.12 µM (inactive)
MDA-N
  GI50: 3.91 µM (inactive)
COLO 205
  GI50: 20.7 µM (inactive)
CCRF-CEM
  GI50: 3.88 µM (inactive)
HCT-116
  GI50: 4 µM (inactive)
OVCAR-3
  GI50: 4.62 µM (inactive)
SNB-19
  GI50: 25.5 µM (inactive)
MCF7
  GI50: 7.35 µM (inactive)
U-251
  GI50: 24.9 µM (inactive)
NCI-H226
  GI50: 18 µM (inactive)

## CC1CCCC(C(=O)CC2CC(=O)NC(=O)C2)C1=O (stereo not given)
KM12
  GI50: > 100 µM (inactive)
SW-620
  GI50: > 100 µM (inactive)
A549
  GI50: > 100 µM (inactive)
SK-MEL-28
  GI50: > 100 µM (inactive)
SK-MEL-5
  GI50: > 100 µM (inactive)
LOX IMVI
  GI50: > 100 µM (inactive)
TK-10
  GI50: > 100 µM (inactive)
UACC-62
  GI50: > 100 µM (inactive)
SF-268
  GI50: > 100 µM (inactive)
NCI-H23
  GI50: > 100 µM (inactive)
Malme-3M
  GI50: > 100 µM (inactive)
MDA-N
  GI50: > 100 µM (inactive)
COLO 205
  GI50: > 100 µM (inactive)
CCRF-CEM
  GI50: > 100 µM (inactive)
HCT-116
  GI50: > 100 µM (inactive)
OVCAR-3
  GI50: > 100 µM (inactive)
SNB-19
  GI50: > 100 µM (inactive)
MCF7
  GI50: > 100 µM (inactive)
U-251
  GI50: > 100 µM (inactive)
NCI-H226
  GI50: > 100 µM (inactive)

## O=C(/C(Cl)=C/c1ccccc1)c1ccccc1
KM12
  GI50: 4.08 µM (inactive)
SW-620
  GI50: 1.84 µM (inactive)
A549
  GI50: 10.9 µM (inactive)
SK-MEL-28
  GI50: 2.29 µM (inactive)
SK-MEL-5
  GI50: 3.11 µM (inactive)
LOX IMVI
  GI50: 2.11 µM (inactive)
TK-10
  GI50: 3.21 µM (inactive)
UACC-62
  GI50: 8.55 µM (inactive)
SF-268
  GI50: 7.06 µM (inactive)
NCI-H23
  GI50: 11.1 µM (inactive)
Malme-3M
  GI50: 2 µM (inactive)
MDA-N
  GI50: 1.86 µM (inactive)
COLO 205
  GI50: 2.58 µM (inactive)
CCRF-CEM
  GI50: 0.692 µM (active)
HCT-116
  GI50: 1.21 µM (inactive)
OVCAR-3
  GI50: 2.21 µM (inactive)
SNB-19
  GI50: 15.1 µM (inactive)
MCF7
  GI50: 2.05 µM (inactive)
U-251
  GI50: 4.27 µM (inactive)
NCI-H226
  GI50: 7.26 µM (inactive)

## CCOP(=O)(OCC)C1CC(O)CN1OC(=O)C(C)(C)C (stereo not given)
KM12
  GI50: > 100 µM (inactive)
SW-620
  GI50: > 100 µM (inactive)
A549
  GI50: > 100 µM (inactive)
SK-MEL-28
  GI50: > 100 µM (inactive)
SK-MEL-5
  GI50: > 100 µM (inactive)
LOX IMVI
  GI50: > 100 µM (inactive)
TK-10
  GI50: > 100 µM (inactive)
UACC-62
  GI50: > 100 µM (inactive)
SF-268
  GI50: > 100 µM (inactive)
NCI-H23
  GI50: > 100 µM (inactive)
Malme-3M
  GI50: > 100 µM (inactive)
MDA-N
  GI50: > 100 µM (inactive)
COLO 205
  GI50: > 100 µM (inactive)
CCRF-CEM
  GI50: > 100 µM (inactive)
HCT-116
  GI50: > 100 µM (inactive)
OVCAR-3
  GI50: > 100 µM (inactive)
SNB-19
  GI50: > 100 µM (inactive)
MCF7
  GI50: > 100 µM (inactive)
U-251
  GI50: > 100 µM (inactive)
NCI-H226
  GI50: > 100 µM (inactive)

## Cc1noc(NS(=O)(=O)c2ccc(NC(=O)c3ccc4[nH]c5ccccc5c(=O)c4c3)cc2)c1C
KM12
  GI50: 36.1 µM (inactive)
SW-620
  GI50: > 100 µM (inactive)
A549
  GI50: > 100 µM (inactive)
SK-MEL-28
  GI50: 35.4 µM (inactive)
SK-MEL-5
  GI50: 44 µM (inactive)
LOX IMVI
  GI50: 22.8 µM (inactive)
TK-10
  GI50: > 100 µM (inactive)
UACC-62
  GI50: 49.5 µM (inactive)
SF-268
  GI50: 40.7 µM (inactive)
NCI-H23
  GI50: 93.3 µM (inactive)
Malme-3M
  GI50: 27 µM (inactive)
MDA-N
  GI50: 57.8 µM (inactive)
COLO 205
  GI50: 37.2 µM (inactive)
CCRF-CEM
  GI50: 23.7 µM (inactive)
HCT-116
  GI50: 47.9 µM (inactive)
OVCAR-3
  GI50: 23.6 µM (inactive)
SNB-19
  GI50: 87.9 µM (inactive)
MCF7
  GI50: 30.5 µM (inactive)
U-251
  GI50: 27.4 µM (inactive)
NCI-H226
  GI50: > 100 µM (inactive)

## O=C(/C=C/c1cccc(Br)c1)c1ccc(Cl)cc1
KM12
  GI50: 11.8 µM (inactive)
SW-620
  GI50: 2.95 µM (inactive)
A549
  GI50: 16.8 µM (inactive)
SK-MEL-28
  GI50: 15.1 µM (inactive)
SK-MEL-5
  GI50: 14.2 µM (inactive)
LOX IMVI
  GI50: 12.6 µM (inactive)
TK-10
  GI50: 13 µM (inactive)
UACC-62
  GI50: 14.8 µM (inactive)
SF-268
  GI50: 17.5 µM (inactive)
NCI-H23
  GI50: 17 µM (inactive)
Malme-3M
  GI50: 14 µM (inactive)
MDA-N
  GI50: 6.32 µM (inactive)
COLO 205
  GI50: 17.2 µM (inactive)
CCRF-CEM
  GI50: 4.5 µM (inactive)
HCT-116
  GI50: 5.35 µM (inactive)
OVCAR-3
  GI50: 16.7 µM (inactive)
SNB-19
  GI50: 16.3 µM (inactive)
MCF7
  GI50: 4.38 µM (inactive)
U-251
  GI50: 5.98 µM (inactive)
NCI-H226
  GI50: 18.8 µM (inactive)
